Data: PubChem BioAssay AID2401 (Southern Research Specialized Biocontainment Screening …, 2010)

Tested on: S. Typhimurium GFP reporter counter-screen, fluorescence, 4 h
Experiment: S. Typhimurium nonspecific reporter signal inhibition – Salmonella Typhimurium, GFP fluorescence, counter-screen for PhoP regulon inhibitor project, dose response (AID 2401);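 also: S. typhimurium with Mg-insensitive nmpC-GFP reporter grown at 10 µM Mg2+; drop in reporter fluorescence reflects general culture growth inhibition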

Structure (SMILES) | IC50
CCCCCCCCCCCCCCCC[n+]1ccc(/C=N/O)cc1 | 28.7 µM
O=c1c(O)cccc2cc(O)c(O)c(O)c12 | 21.9 µM
COc1cc(Cc2cc(N)nc(N)n2)cc(OC)c1OC | 0.74 µM
Oc1c(CN2CCCCC2)cc(COCc2ccccc2)c2cccnc12 | 80.5 µM
OCCNCc1c(OCc2ccc(Cl)cc2)ccc2ccccc12 | 90 µM
Cc1ccc(Nc2nc(N)c3ccccc3n2)cc1Cl | 52.2 µM
CC(C)(C)/C(O)=C/c1nc2cc(Cl)ccc2oc1=O | 65.1 µM
O=[N+]([O-])c1cc(O)c2ncccc2c1 | 16.8 µM
Cc1[nH]n(-c2ccccc2)c(=O)c1C(C[N+](=O)[O-])c1ccc(F)cc1 (centres undefined) | 78.8 µM
Cc1nn(-c2ccccc2)c(N2CCCC2)c1/C=N/Nc1ccc(S(N)(=O)=O)cc1[N+](=O)[O-] | 88.7 µM
CC1COc2c(N3CCN(C)CC3)c(F)cc3c(=O)c(C(=O)O)cn1c23 (centres undefined) | 0.8 µM
CC[C@H]1OC(=O)[C@H](C)[C@@H](O[C@H]2C[C@@](C)(OC)[C@@H](O)[C@H](C)O2)[C@H](C)[C@@H](O[C@@H]2O[C@H](C)C[C@H](N(C)C)[C@H]2O)[C@](C)(O)C[C@@H](C)CN(C)[C@H](C)[C@@H](O)[C@]1(C)O | 2.37 µM
Cc1ccc(Nc2cc(C)c3ccc(O)cc3n2)cc1C | 146 µM
Cc1ccc(S(=O)(=O)Nc2cc(Cl)c(O)c3ncccc23)cc1 | 29 µM
C[C@H]1c2cccc(O)c2C(O)=C2C(=O)C3(O)C(O)=C(C(N)=O)C(=O)[C@@H](N(C)C)[C@@H]3[C@@H](O)[C@@H]21 (some centres undefined) | 3.63 µM
CCCCCCCCCn1c2c(c(=N)c3c1CCC3)CCCC2 | 31.3 µM
CCn1cc(C(=O)O)c(=O)c2cc(F)c(N3CCNCC3)cc21 | 0.88 µM
O=c1[nH]cc(F)c(=O)[nH]1 | 20.5 µM
COC(=O)c1cc(C)nc2c1C(=O)C(=O)C=C2N1CCOCC1 | 118 µM
C#CCOCCOCCOCCNc1nc(N2CCN(C(=O)CCCCCCCCCCNC(=O)[C@H]([C@@H](C)CC)n3cc(CCCCN=C(N)N)nn3)CC2)nc(N2CCN(C(=O)CCCCCCCCCCNC(=O)[C@H]([C@@H](C)CC)n3cc(CCCCN=C(N)N)nn3)CC2)n1 | 43.4 µM
CCn1cc(C(=O)NCCCO)c(=O)c2cc(F)c(N3CCN(C)CC3)cc21 | 46.8 µM
COc1c(N2CCN[C@H](C)C2)c(F)cc2c(=O)c(C(=O)O)cn(C3CC3)c12 | 0.78 µM
CN1CCc2c(sc(NC(=O)c3ccc([N+](=O)[O-])o3)c2C(N)=O)C1 | 47.7 µM
CCCCCCCCCCCCCCCC[n+]1cccc2ccccc21 | 19.1 µM
CN1CCN(c2cc3c(cc2F)c(=O)c(C(=O)O)cn3CCF)CC1 | 0.93 µM
O=C(CSc1nc2ccccc2s1)N/N=C/c1cc([N+](=O)[O-])ccc1O | 88.4 µM
CC(Cc1ccccc1)NCc1ccccc1O (centres undefined) | 28.2 µM

Structure (SMILES) | IC50
COC1C(OC(=O)c2ccc(C)[nH]2)C(O)C(Oc2ccc3c(O)c(NC(=O)c4ccc(O)c(CC=C(C)C)c4)c(=O)oc3c2Cl)OC1(C)C (centres undefined) | 16.5 µM
COc1ccc(CNC[C@@H](CCCCN(C)Cc2ccc(OC)cc2)N2C[C@H](c3ccccc3)N(CCc3ccc(Cl)c(Cl)c3)C(=O)C2=O)cc1 | 45.7 µM
NC(N)=N/N=C/c1ccc(OCc2ccc(Cl)cc2)cc1 | 35.7 µM
COc1ccc(C(C[N+](=O)[O-])c2c(-c3ccccc3)cc3ccccn23)cc1 (centres undefined) | 29.9 µM
Oc1ccc(N=Cc2ccc(O)c(O)c2)cc1 | 118 µM
C/C(CC(=O)Nc1ccc(Cl)c(C(F)(F)F)c1)=N\NC(=O)c1cc2ccccc2cc1O | 80.6 µM
O=C(Nc1nc(-c2ccccn2)cs1)c1ccc(Cl)s1 | 28.6 µM
Nc1cc(Cl)c2nonc2c1[N+](=O)[O-] | 54.1 µM
O=C(N/N=C/c1sc2ccccc2c1O)c1cccc2ccccc12 | 23.6 µM
CCN1CCN(C(c2cccnc2)c2cc(Cl)c3cccnc3c2O)CC1 (centres undefined) | 36 µM
CCCCCCCSc1cc(OC)c(CCNC)cc1OC | 39.4 µM
O=C(N/N=C\c1cccc([N+](=O)[O-])c1O)C1COc2ccccc2O1 (centres undefined) | 54.6 µM
O=C(N/N=C/c1cccc([N+](=O)[O-])c1O)c1cccs1 | 16.8 µM
O=C(N/N=C/c1cc(O)ccc1Br)c1cccnc1 | 25.4 µM
CC(C)COc1ccc(Cc2cnc(N)nc2N)cc1 | 61.8 µM
COc1ccc(CN2C(=O)Cc3c2nc(N)c2c(N)nc(N4CCCCC4)c(C#N)c32)cc1 | 120 µM
Cc1ccc(C)c(/C=C/C(=O)c2ccccc(=O)c2O)c1 | 38.9 µM
CCCCCCCCNc1ncnc2ccccc12 | 150 µM
O=[N+]([O-])c1cc(CN2CCOCC2)c2cccnc2c1O | 27.2 µM
O=C(CN1CC(c2ccccc2)CC1=O)N/N=C/c1cc(Br)ccc1O (centres undefined) | 139 µM
Cc1ccc(C(C[N+](=O)[O-])c2c(N)n(C)c(=O)n(C)c2=O)cc1 (centres undefined) | 15.1 µM
NC1=NC[C@@H](Cc2ccc(O)cc2)N1CCCCC1CCCCC1 | 32.9 µM
O=C(N/N=C/c1cc([N+](=O)[O-])ccc1O)c1ccncc1 | 24.2 µM
O=C(C[n+]1cc(-c2ccc(Cl)cc2)n2c1CCC2)Nc1nc(-c2ccccc2)cs1 | 84 µM
Cc1nc2c(=O)n(C)c(=O)nc-2n(C)n1 | 1.09 µM
CCOc1ccc(Nc2nc(N)c3ccccc3n2)cc1 | 86.2 µM
CN1CCN(C(c2ccc(Cl)cc2)c2cc(Cl)c3cccnc3c2O)CC1 (centres undefined) | 33.5 µM
